In patent US20250304549A1, “HYDROXYAMIDE DERIVATIVE AND USE THEREOF” (SICHUAN HUIYU PHARMACEUTICAL CO., LTD., priority 2022, published 2025) one finds IC50 data, which are given here for twelve compounds.

pIC50: −log10 of the molar value. Where a name gives a salt, the structure may show the parent alone.

For test [1], the target named is LSD1 (Homo sapiens (Human), UniProt O60341). In words: In vitro enzyme inhibition assay - LSD1 (HTRF). The format is biochemical. The procedure: 1. In Vitro Enzyme Inhibition Assay—LSD1
Initially, a master solution of 90 μM test compound (dissolved in DMSO) was prepared and sequentially diluted with DMSO in a 5-fold concentration gradient to yield a total of 9 concentrations of the compound working solution 1 (90×). Subsequently these 9 concentrations of working solution 1 were sequentially diluted by a 30-fold concentration gradient, i.e., 2 μL of working solution 1 was aspirated and added to 58 μL of Buffer, mixed on a vortex mixer with sufficient shaking to yield 9 concentrations of the screening test compound working solution 2 (3×). […] The mixture was incubated at room temperature for 15 minutes. […] Afterward, 2 μL of a termination solution (containing 5.4 mM 2-PCPA) was added to each well, mixed evenly, and incubated for another 15 minutes. Finally 4 μL of a pre-mixed antibody solution of Eu-anti H3K4 (PerkinElmer, TRF0404-D) and allophycocyanin (Prozyme, PJ27S) (1:1) was added to each well, mixed evenly, and incubated for 60 minutes. […] The inhibition rate was calculated through the following formula: […]
(§1) Note: ‘Negative’ refers to the group without the inhibitor; ‘Blank’ refers to the group without the enzyme.
(§2) The IC50 value was calculated by fitting the inhibition rate by GraphPad Prism software, employing log (inhibitor) vs. response-Variable Slope (four parameters) model.
In general terms: Time-resolved FRET reads energy transfer from a long-lived donor to a nearby acceptor.

Test [2] has as its target pan-HDAC. In words: In vitro enzyme inhibition assay - HDAC (HDAC-Glo I/II), pan-HDAC. The format is biochemical. The procedure: 2. In Vitro Enzyme Inhibition Assay—HDAC
The effect of the compound on the enzymatic activity of pan-HDAC and two isoforms (HDAC1 and HDAC8) was examined using the HDAC-Glo I/II Assay and Screening System assay to assess the level of inhibition of HDAC protease activity and selectivity in each isoform. The proteins and detection reagents were from the HDAC-Glo™ I/II Assay and Screening System (Promega). A 1 mM stock solution of the compound was prepared in DMSO and diluted in a 5-fold gradient to create a series of 8 concentrations, and a specific volume of the highest concentration was diluted 25 times with HDAC Buffer to obtain 4× working solution of the compound. […] The 384-well plate was then read on a multifunctional microplate reader, with the Luminescence channel selected to record Luminescence values (RLU). The inhibition rate was calculated using the following formula: […]
as §1, §2

The test system of test [3] is NCI-H1417 cells. Description: In vitro cell inhibition assay - H1417 cell proliferation (CellTiter-Glo). To be noted: Homo sapiens, NCI-H1417, H1417 small cell lung cancer cell proliferation. It is filed as cell-based. The procedure:
3. In Vitro Cell Inhibition Assay—H1417 Cell Proliferation
The inhibitory effect of the compounds on cell proliferation was assessed by detecting the number of viable cells using the CellTiter-Glo® reagent. […] The compounds were sequentially diluted in a 5-fold concentration gradient with DMSO to obtain 8 different concentrations o. These were diluted with BEGM (containing 10% FBS) cell culture medium to obtain the compound working solution (2×), which was added to the cell supernatant at 100 μL per well. The incubation continued for 7 days at 37° C., 5% CO2. The plate was then removed and equilibrated to room temperature (25° C.) along with the CellTiter-Glo® mixing reagent for 10-30 minutes. After centrifugation, 100 μL of the culture medium was carefully aspirated from each well, and 85 μL of CellTiter-Glo® reagent was added. The cells were thoroughly mixed with the CellTiter-Glo® mixing reagent using a microplate shaker for 2 min. and then incubated at room temperature for 10 min. The 96-well plate was subsequently placed on a multifunctional microplate reader to record the Luminescence values (RLU). • The inhibition rate was calculated using the following formula: […]
(§3) Note: ‘Negative’ refers to the group without inhibitors; ‘Blank’ refers to the group without cells.
(§4) The IC50 value was determined by fitting the inhibition rate by GraphPad Prism software.
Background: Cellular ATP, detected with luciferase, serves as a proxy for viable cell number.

In test [4] the test system is NCI-H69 cells. Description: In vitro cell inhibition assay - NCI-H69 cell proliferation (CellTiter-Glo). It is filed as cell-based. To be noted: Homo sapiens, NCI-H69, H69 small cell lung cancer cell proliferation. As for the experimental part: 4. In Vitro Cell Inhibition Assay—NCI-H69 Cell Proliferation
The inhibitory effect of the compounds on cell proliferation was assessed by detecting the number of viable cells using the CellTiter-Glo® reagent. NCI-H69 cells in the logarithmic growth phase were collected and inoculated into transparent bottom 96-well plates at a density 1×10^3 cells per well with 100 μL medium, and incubated at 37° C., 5% CO2 overnight. The compounds were sequentially diluted in a 5-fold concentration gradient with DMSO to obtain 8 different concentrations These were then diluted with RPMI-640 (containing 20% FBS) cell culture medium to obtain the compounds working solution (2×), which was added to the cell supernatant at 100 μL per well. The incubation continued for 7 days at 37° C., 5% CO2. The plate was then removed and equilibrated to room temperature (25° C.) along with the CellTiter-Glo® mixing reagent for 10-30 minutes. After centrifugation at 1200 rpm for 5 minutes, 120 μL of the culture medium was carefully aspirated from each well, and 60 μL of CellTiter-Glo® reagent was added. The cells were thoroughly mixed with the CellTiter-Glo® mixing reagent using a microplate shaker for 2 min. and then incubated at room temperature for 10 min. The 96-well plate was subsequently placed on a multifunctional microplate reader to record the Luminescence values (RLU).
The inhibition rate was calculated using the following formula: […]
as §3, §4

For `CC(C)(O)Cn1nnc2cc(-c3cnc(N4CCC(NCc5ccc(/C=C/C(=O)NO)cn5)CC4)c(C#N)c3-c3ccc(C#N)c(F)c3)ccc21` [Example 224, (E)-3-(6-(((1-(3-Cyano-4-(4-cyano-3-fluorophenyl)-5-(1-(2-hydroxy-2-methylpropyl)-1H-benzo[d][1,2,3]triazol-5-yl)pyridin-2-yl)piperidin-4-yl)amino)methyl)pyridin-3-yl)-N-hydroxyacrylamide formate], the pIC50 – broadly, the negative decadic logarithm of the IC50, by convention in mol/L – in test [1] is 9.72; in test [3] it was 7.61; in test [4], 6.52. Further, in test [2], the IC50 (as a rule, the concentration that gives 50% inhibition) was found to be 10.6 nM.

With `CC(C)(O)Cn1nnc2cc(-c3cnc(N4CCC(NCc5ccc(/C=C/C(=O)NO)nc5)CC4)c(C#N)c3-c3ccc(C#N)c(F)c3)ccc21` [Example 225, (E)-3-(5-(((1-(3-Cyano-4-(4-cyano-3-fluorophenyl)-5-(1-(2-hydroxy-2-methylpropyl)-1H-benzo[d][1,2,3]triazol-5-yl)pyridin-2-yl)piperidin-4-yl)amino)methyl)pyridin-2-)-N-hydroxyacrylamide formate], the pIC50 in test [1] is 9.46; in test [3] it was 8.07; in test [4] it was 7.11. In test [2], this compound had an IC50 of 3.43 nM.

In the case of `CC(C)(O)Cn1nnc2cc(-c3cnc(N4CCC(NCc5ccc(/C=C/C(=O)NO)cc5)CC4)c(C#N)c3-c3ccc(C#N)c(F)c3)c(F)c(F)c21` [Example 226, (E)-3-(4-(((1-(3-Cyano-4-(4-cyano-3-fluorophenyl)-5-(6,7-difluoro-1-(2-hydroxy-2-methylpropyl)-1H-benzo[d][1,2,3]triazol-5-yl)pyridin-2-yl)piperidin-4-yl)amino)methyl)phenyl-N-hydroxyacrylamide formate], the pIC50 is 10.70 in test [1], 8.64 in test [3] and 7.00 in test [4]. The IC50 in test [2] worked out at 24.8 nM.

Turning to `COc1ccc(-c2cnc(N3CCC(CNCc4ccc(/C=C/C(=O)NO)cc4)C3)c(C#N)c2-c2ccc(C#N)c(F)c2)cc1O` (stereo not drawn) [Example 228, (E)-3-(4-((((1-(3-Cyano-4-(4-cyano-3-fluorophenyl)-5-(3-hydroxy-4-methoxyphenyl)pyridin-2-yl)pyrrolidin-3-yl)methyl)amino)methyl)phenyl)-N-hydroxyacrylamide hydrochloride], the pIC50 in test [1] is 9.05; in test [3], 7.04; in test [4], 7.07. For the same compound, in test [2], the IC50 stood at 24.3 nM.

`CC1(NCc2ccc(/C=C/C(=O)NO)cc2)CCN(c2ncc(-c3ccc(OCC4(O)CC4)c(O)c3)c(-c3ccc(C#N)c(F)c3)c2C#N)CC1` [Example 229, (E)-3-(4-(1-(3-cyano-4-(4-cyano-3-fluorophenyl)-5-(3-hydroxy-4-((1-hydroxycyclopropyl)methoxy)phenyl)pyridin-2-yl)-4-methylpiperidin-4-yl)amino)methyl) phenyl)-N-hydroxyacrylamide formate]: the values for the negative-log IC50 (pIC50) in test [1], in test [3] and in test [4] were 9.06, 8.03 and 6.28, respectively. The same compound registered an IC50 in test [2] of 30.8 nM.

For `COc1ccc(-c2cnc(N3CCC(NCc4ncc(/C=C/C(=O)NO)cc4F)CC3)c(C#N)c2-c2ccc(C#N)c(F)c2)cc1O` [Example 230, (E)-3-(6-(((1-(3-Cyano-4-(4-cyano-3-fluorophenyl)-5-(3-hydroxy-4-methoxyphenyl)pyridin-2-yl)piperidin-4-yl)amino)methyl)-5-fluoropyridin-3-yl)-N-hydroxyacrylamide formate], the pIC50 in test [1] is 8.84; in test [3] it was 8.33; in test [4] it was 7.11. This compound also displayed an IC50 in test [2] of 10.3 nM.

In the case of `CC(NC1CCN(c2ncc(-c3ccc(OCC(C)(C)O)c(O)c3)c(-c3ccc(C#N)c(F)c3)c2C#N)CC1)c1ccc(/C=C/C(=O)NO)cc1` (stereo not drawn) [Example 235, (E)-3-(4-(1-((1-(3-Cyano-4-(4-cyano-3-fluorophenyl)-5-(3-hydroxy-4-(2-hydroxy-2-methylpropoxy)phenyl)pyridin-2-yl)piperidin-4-yl)amino)ethyl)phenyl)-N-hydroxyacrylamide formate], the pIC50 in test [1] is 8.62; in test [3], 8.63; in test [4], 7.72. This compound had an IC50 in test [2] of 8.01 nM.

As to `Cc1noc2cc(-c3cnc(N4CCC(NCc5ccc(/C=C/C(=O)NO)cn5)CC4)c(C#N)c3-c3ccc(C#N)c(F)c3)c(F)cc12` [Example 236, (E)-3-(6-(((1-(3-Cyano-4-(4-cyano-3-fluorophenyl)-5-(5-fluoro-3-methylbenzo[d]isoxazol-6-yl)pyridin-2-yl)piperidin-4-yl)amino)methyl)pyridin-3-yl)-N-hydroxyacrylamide formate], the negative-log IC50 (pIC50) was 9.23 in test [1], 8.22 in test [3] and 6.39 in test [4]. Moreover, in test [2], 37 nM corresponded to half-maximal inhibition (IC50).

Take `N#Cc1ccc(-c2c(-c3ccc(Cl)c(O)c3)cnc(N3CCC(NCc4ccc(/C=C/C(=O)NO)cn4)CC3)c2C#N)cc1F` [Example 239, (E)-3-(6-(((1-(5-(4-Chloro-3-hydroxyphenyl)-3-cyano-4-(4-cyano-3-fluorophenyl)pyridin-2-yl)piperidin-4-yl)amino)methyl)pyridin-3-yl)-N-hydroxyacrylamide formate]: the negative logarithm of the IC50 (pIC50) is 8.63 in test [1], 7.94 in test [3] and 7.60 in test [4]. The same compound gave an IC50 in test [2] of 10.2 nM.

Take `COc1ccc(-c2cnc(N3CCC(NCc4ccc(/C=C/C(=O)NO)cc4)C(C)C3)c(C#N)c2-c2ccc(C#N)c(F)c2)cc1O` (stereo not drawn) [Example 242, (E)-3-(4-(((1-(3-Cyano-4-(4-cyano-3-fluorophenyl)-5-(3-hydroxy-4-methoxyphenyl)pyridin-2-yl)-3-methylpiperidin-4-yl)amino)methyl)-N-hydroxyacrylamide formate]: the pIC50 in test [1] was 8.61; in test [3], 7.74; in test [4] it was 7.75. The same compound displayed an IC50 in test [2] of 16 nM.

Take `N#Cc1ccc(-c2c(-c3ccc(N4CCOCC4)c(O)c3)cnc(N3CCC(NCc4ccc(/C=C/C(=O)NO)cn4)CC3)c2C#N)cc1F` [Example 246, (E)-3-(6-(((1-(3-Cyano-4-(4-cyano-3-fluorophenyl)-5-(3-hydroxy-4-morpholinophenyl)pyridin-2-yl)piperidin-4-yl)amino)methyl)pyridin-3-yl)-N-hydroxyacrylamide formate]: the pIC50 was 9.03 in test [1], 7.97 in test [3] and 7.84 in test [4]. Besides, in test [2], 5.38 nM corresponded to half-maximal inhibition (IC50).

Consider `COc1ccc(-c2cnc(N3CCC(NCc4ccc(/C=C/C(=O)NO)cc4)CC3)c(C#N)c2-c2cnc(C#N)nc2)cc1O` [Example 250, E)-3-(4-(((1-(3-Cyano-4-(2-cyanopyrimidin-5-yl)-5-(3-hydroxy-4-methoxyphenyl)pyridin-2-yl)piperidin-4-yl)amino)methyl) phenyl)-N-hydroxyacrylamide formate], for which the pIC50 in test [1] is 7.77; in test [3], 8.62; in test [4], 8.71. The same compound had an IC50 in test [2] of 1.08 nM.
